Measurements: patent publication US8609656B2, “Heteroarylphenylurea derivative” (Chugai Seiyaku Kabushiki Kaisha, priority 2004, dated 2013)
≈ marks a conversion by molar mass, not a printed value.

Columns and labels:
[1] = test system: VEGF dependent HUVEC; assay: Cell growth inhibition test, VEGF dependent HUVEC; format: cell-based; conditions: Homo sapiens, 20 ng/mL of VEGF, 72 hours, WST-1, read-out: HUVEC (VEGF Dependence), 50% Growth Inhibition Concentration (IC50 value)
Method: (§1) Cell Growth Inhibition Test
(§2) With respect to the compounds relating to the present invention and the known compound (BAY 43-9006), cell growth inhibition activity was measured.
(§3) A sample compound was in-series diluted with dimethyl sulfoxide, and then was 1/50 diluted with a Ca^2+- and Mg^2+-free phosphate-bufferized physiological saline and its 20 μL was poured to a 96-well plate. […] Each of these cell suspensions was dividedly poured to the sample added plate in 180 μL/well and cultured in a 5% carbon dioxide incubator at 37° C. After 72 hours, 20 μL of WST-(HCT 116, a product of Dojin) or WST-1 (HUVEC, a product of Roche diagnostics) was added thereto to each well and the absorbance at 450 nm (reference wavelength: 650 nm) was measured. From the growth inhibition ratio of addition of the sample compound to no-addition of the sample compound as a reference, the 50% growth inhibition IC50) of the sample compound was calculated.
(§4) With respect to the group of representative compounds of the present invention, the IC50 values of HCT 116 and HUVEC (VEGF nondependent growth and VEGF dependent growth) are shown in Tables 5-1 to 5-3.

[2] = biological target: T1, recombinant Raf-1 protein (activated type GST-Raf-1) (Homo sapiens, UniProt P04049); assay: RAF-1 enzyme inhibition test (33P incorporation into MEK 1 protein); format: biochemical; conditions: 10 μM ATP, GST-MEK1 substrate, 30° C., 45 minutes; read-out: Raf-1 Enzyme Inhibition, 50% Enzyme Inhibition Concentration (IC50 value)
T1 construct: fused on or other part: GST tag fused to Raf-1
How it was run: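 GST-MEK1 (2 μg) was phosphorylated by activated GST-Raf-1 (25 ng) with 10 μM ATP spiked with 33P-ATP, in Tris-HCl pH 7.5 with DTT, NaCl, KF, vanadate and 10 mM MgCl2, for 45 min at 30° C. Protein was precipitated with TCA and radioactivity counted on filters. IC50 was calculated from inhibition relative to a compound-free reference.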

[3] = test system: VEGF non-dependent human umbilical vein endothelial cells (HUVEC); assay: Cell growth inhibition test, VEGF non-dependent HUVEC; format: cell-based; conditions: 72 hours, WST-1, read-out: HUVEC (VEGF Nondependence), 50% Growth Inhibition Concentration (IC50 value)
Method: as §1, §2, §3, §4

[4] = Antitumor test, reduction in body weight; format: in vivo, male Balb/c nude mouse; conditions: dosage 200 mg/kg, orally one time a day for 5 days, day 7 after starting administration
Method: (§5) A cell suspension of a human colorectal cancer cell strain HCT 116 was prepared with a Hunks' balanced salt solution. Its 5.0×10^6 were inoculated subcutaneously to the flank of each male Balb/c nude mouse. When the mean volume of a tumor reached 200 to 250 mm^3, a sample compound was orally administered one time a day for 5 days. The tumor volume was calculated from the calculation formula: 0.5×(minor diameter)^2×(major diameter), and the tumor growth inhibition ratio was calculated from the ratio of the tumor growth of the sample administered group to that of a reference group. The dosage in the antitumor test, the tumor growth inhibition ratio on the final administration day and the reduction in body weight on day 7 after starting administration are shown in Tables 6-1 and 6-2

[5] = Solubility to fasted state simulated intestinal fluid; format: physicochemical; conditions: fassif, kinetic from dmso stock, fasted state simulated intestinal fluid (pH 6.5), 37° C.
How it was run: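 DMSO stock of compound added to FaSSIF (pH 6.5; taurocholate, phosphatidylcholine, KH2PO4, KCl) and shaken 20 h at 37° C. Filtrate diluted with ethanol:water 2:1 and read by UV absorbance; solubility taken as sample-to-standard absorbance ratio (blank-corrected) × 165 μM standard.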

[6] = test system: human colorectal cancer cell strain HCT 116; assay: Cell growth inhibition test, HCT 116; format: cell-based; conditions: 72 hours, read-out: HCT116, 50% Growth Inhibition Concentration (IC50 value)
Method: as §1, §2, §3, §4

[7] = test system: human colorectal cancer cell strain HCT 116; assay: Antitumor test, HCT 116 inoculated subcutaneously in nude mouse; format: in vivo, male Balb/c nude mouse; conditions: dosage 200 mg/kg, orally one time a day for 5 days, final administration day
Method: as §2, §5

T1 sequence (P04049 349-648 limits assumed): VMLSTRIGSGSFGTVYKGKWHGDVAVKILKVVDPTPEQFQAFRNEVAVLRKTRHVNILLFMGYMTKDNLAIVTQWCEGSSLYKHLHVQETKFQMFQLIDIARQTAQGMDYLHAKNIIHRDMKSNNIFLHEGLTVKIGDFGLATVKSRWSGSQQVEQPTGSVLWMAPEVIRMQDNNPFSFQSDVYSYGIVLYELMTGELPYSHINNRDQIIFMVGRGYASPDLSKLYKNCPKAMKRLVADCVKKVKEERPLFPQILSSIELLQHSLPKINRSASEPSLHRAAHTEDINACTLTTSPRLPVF

Compound	IC50 [1]	IC50 [2]	IC50 [3]	Body Weight Reduction ratio (%) [4]	solubility at 20 h [5]	IC50 [6]	Tumor Inhibition Ratio (%) [7]
CNc1ncnc2c1ncn2-c1ccc(NC(=O)Nc2ccc(Cl)c(C(F)(F)F)c2)cc1.Cl [Table 1, Compound 36, 1-(4-Chloro-3-(trifluoromethyl)phenyl)-3-[4-(6-(methylamino)purin-9-yl)phenyl]urea hydrochloride]	79 nM	110 nM	250 nM	5.9%	22 µg/mL	700 nM	81%
CN1CCN(Cc2cc(NC(=O)Nc3ccc(-n4cnc5c(N)ncnc54)cc3)cc(C(F)(F)F)c2)CC1 [Table 2, Compound 26]	–	83 nM	–	5.0%	61 µg/mL (≈ 116 µM)	–	72%
CNc1ncnc2c1ncn2-c1ccc(NC(=O)Nc2cc(CN3CCN(C)CC3)cc(C(F)(F)F)c2)cc1 [Table 2, Compound 25, 1-[4-(6-(Methylamino)purin-9-yl)phenyl]-3-[3-(4-methyl-piperazin-1-ylmethyl)-5-(tri-fluoromethyl)phenyl]urea]	280 nM	110 nM	1700 nM	2.7%	158 µg/mL (≈ 293 µM)	1700 nM	80%
CCCNC(=O)Nc1ncnc2c1ncn2-c1ccc(NC(=O)Nc2ccc(Cl)c(C(F)(F)F)c2)cc1 [Table 1, Compound 119, 1-(9-{4-[3-(4-Chloro-3-(tri-fluoromethyl)phenyl)ureido]-phenyl}-9H-purin-6-yl)-3-propylurea]	64 nM	13 nM	970 nM	8.5%	39 µg/mL (≈ 73.2 µM)	3700 nM	89%
